Source: patent publication US9040502B2, “Anti-XDR-TB drug, anti-MDR-TB drug, and combination anti-tuberculosis drug” (priority 2008, dated 2015)

The compounds below were run on Mycobacterium tuberculosis XDR-TB (0306-0206). Details: ratio method, concentrations as in Table 1.
Assay type: cell-based
For `N[C@@H]1CON=C1O` [CS, cycloserine], the “Resistance or sensitivity of M. tuberculosis XDR-TB (0306-0206) to the drug” value (“Resistance or sensitivity” for short) was “sensitive”. For `CC[C@@H](CO)NCCN[C@@H](CC)CO` [EB, ethambutol], the “Resistance or sensitivity” value was “resistant”. For `NNC(=O)c1ccncc1` [INH, isonicotinic acid hydrazide], the “Resistance or sensitivity” value was “resistant”. For `Nc1ccc(C(=O)O)c(O)c1` [PAS, para-amino-salicylic acid], the “Resistance or sensitivity” value was “resistant”. In the case of `[H]/N=C(/N)N[C@H]1[C@H](O)[C@@H](O)[C@H](O[C@@H]2O[C@@H](C)[C@](O)(C=O)[C@H]2O[C@@H]2O[C@@H](CO)[C@H](O)[C@@H](O)[C@@H]2NC)[C@@H](N/C(N)=N\[H])[C@@H]1O` [SM, streptomycin], the “Resistance or sensitivity” value is reported as “resistant”. `CCc1cc(C(N)=S)ccn1` [TH, ethionamide] was tested, and the “Resistance or sensitivity” value was “resistant”. In the case of enviomycin [EVM], the “Resistance or sensitivity” value is reported as “resistant”.
